For 13 compounds, IC50 results are on record in patent US11306079B2, “3-(5-amino-pyrazin-2-yl)-benzenesulfonamide derivatives and related compounds as PI3K-gamma kinase inhibitors” (Incyte Corporation, priority 2017, dated 2022).

Where a name gives a salt, the structure may show the parent alone. Bounds are passed on as bounds.

The target in experiment [1] is PI3Kδ (p110δ/p85α) Recombinant Human Protein (Homo sapiens (Human), UniProt O00329). Nature of the experiment: PI3Kδ Scintillation Proximity Assay. Format: biochemical. To be noted: 20 μM PIP2, 2 μM ATP, 3.4 nM PI3Kδ, 120 min, room temperature. An excerpt:
Example C. PI3Kδ Scintillation Proximity Assay
[γ-^33P]ATP (10 mCi/mL) and Wheat Germ Agglutinin (WGA) YSi SPA Scintillation Beads was purchased from Perkin-Elmer (Waltham, Mass.). Lipid kinase substrate, D-myo-Phosphatidylinositol 4,5-bisphosphate (PtdIns(4,5)P2)D (+)-sn-1,2-di-O-octanoylglyceryl, 3-O-phospho linked (PIP2), CAS 204858-53-7, was purchased from Echelon Biosciences (Salt Lake City, Utah). PI3Kδ (p110δ/p85α) Recombinant Human Protein was purchased from Eurofins (St Charles, Mo.). ATP, MgCl2, DTT, EDTA, MOPS and CHAPS were purchased from Sigma-Aldrich (St. Louis, Mo.).
(§1) The kinase reaction was conducted in polystyrene 384-well Greiner Bio-one white plate from Thermo Fisher Scientific in a final volume of 25 μL. Inhibitors were first diluted serially in DMSO and added to the plate wells before the addition of other reaction components. The final concentration of DMSO in the assay was 2%. The PI3Kδ assay was carried out at room temperature in 20 mM MOPS, pH 6.7, 10 mM MgCl2, 5 mM DTT and CHAPS 0.03%. Reactions were initiated by the addition of ATP, the final reaction mixture consisted of 20 μM PIP2, 2 μM ATP, 0.5 μCi [γ-^33P] ATP, 3.4 nM PI3Kδ. Reactions were incubated for 120 min and terminated by the addition of 40 μL SPA beads suspended in quench buffer: 163 mM potassium phosphate pH 7.8, 20% glycerol, 25 mM EDTA. The final concentration of SPA beads is 1.0 mg/mL. After the plate sealing, plates were shaken overnight at room temperature and centrifuged at 1500 rpm for 10 min, the radioactivity of the product was determined by scintillation counting on Topcount (Perkin-Elmer). IC50 determination was performed by fitting the curve of percent of the solvent control activity versus the log of the inhibitor concentration using the GraphPad Prism 6.0 software.
For orientation: Scintillation proximity formats need no separation of bound from free tracer.

The subject of experiment [2] is Phosphorylated Ribosomal Protein S6 (RPS6) in THP-1 cells. Nature of the experiment: THP-1 RPS6 ELISA Assay. Format: cell-based. To be noted: Homo sapiens; serum starved THP-1 cells, 2 hours with compound, 10 nM MCP-1 for 15 minutes, Phospho-RPS6 ELISA; read-out: PI3Kγ_THP1_RPS6_ELISA IC50. As to the method:
Example A. THP-1 RPS6 ELISA Assay
To measure the Phosphorylated Ribosomal Protein S6 (RPS6) in cell lysates, THP-1 cells (Human Acute Monocytic Leukemia) are purchased from ATCC (Manassas, Va.) and maintained in RPMI with 10% FBS (Gibco/Life Technologies, Carlsbad, Calif.). For the assay, THP-1 cells are serum starved overnight in RPMI, then plated in RPMI (2×10^5 cells/well in 90 μL) into 96-well flat-bottom tissue culture treated plates (Corning, Corning, N.Y.), in the presence or absence of a concentration range of test compounds. Covered plates are incubated for 2 hours at 37° C., 5% CO2 then treated with or without 10 nM MCP-1 (MYBioSource, San Diego, Calif.) for 15 minutes at 37° C., 5% CO2. Plates are centrifuged at 1600 RPM and supernatants are removed. Cells are lysed in Lysis Buffer (Cell Signaling, Danvers, Mass.) with Protease Inhibitor (Calbiochem/EMD, Germany), PMSF (Sigma, St Louis Mo.), HALTS (Thermo Fisher, Rockford, Ill.) for 30 min on wet ice. Cell lysates are frozen at −80° C. before testing. The lysates are tested in the Human/Mouse/Rat Phospho-RPS6 ELISA (R&D Systems, Inc. Minn, Minn.). The plate is measured using a microplate reader (SpectraMax M5—Molecular Devices, LLC Sunnyvale, Calif.) set to 450 nm with a wavelength correction of 540. IC50 determination is performed by fitting the curve of inhibitor percent inhibition versus the log of the inhibitor concentration using the GraphPad Prism 5.0 software.
Background: ELISA stands for enzyme-linked immunosorbent assay.

Experiment [3] addresses PI3Kγ (p110γ) Recombinant Human Protein (Homo sapiens (Human), UniProt P48736). Nature of the experiment: PI3K-γ Scintillation Proximity Assay. It counts as biochemical. Particulars: 20 μM PIP2, 2 μM ATP, 13 nM PI3Kγ, 120 min, room temperature.
Description: Example B. PI3K-γ Scintillation Proximity Assay
[γ-^33P]ATP (10 mCi/mL) and Wheat Germ Agglutinin (WGA) YSi SPA Scintillation Beads was purchased from Perkin-Elmer (Waltham, Mass.). Lipid kinase substrate, D-myo-Phosphatidylinositol 4,5-bisphosphate (PtdIns(4,5)P2)D (+)-sn-1,2-di-O-octanoylglyceryl, 3-O-phospho linked (PIP2), CAS 204858-53-7, was purchased from Echelon Biosciences (Salt Lake City, Utah). PI3Kγ (p110γ) Recombinant Human Protein was purchased from Life technology (Grand island, NY), ATP, MgCl2, DTT, EDTA, MOPS and CHAPS were purchased from Sigma-Aldrich (St. Louis, Mo.).
as §1, with “PI3Kγ” for “PI3Kδ”, “13” for “3.4”, “PI3Kγ.” for “PI3Kδ.”

Chain of PI3Kγ (p110γ) Recombinant Human Protein (P48736 whole entry): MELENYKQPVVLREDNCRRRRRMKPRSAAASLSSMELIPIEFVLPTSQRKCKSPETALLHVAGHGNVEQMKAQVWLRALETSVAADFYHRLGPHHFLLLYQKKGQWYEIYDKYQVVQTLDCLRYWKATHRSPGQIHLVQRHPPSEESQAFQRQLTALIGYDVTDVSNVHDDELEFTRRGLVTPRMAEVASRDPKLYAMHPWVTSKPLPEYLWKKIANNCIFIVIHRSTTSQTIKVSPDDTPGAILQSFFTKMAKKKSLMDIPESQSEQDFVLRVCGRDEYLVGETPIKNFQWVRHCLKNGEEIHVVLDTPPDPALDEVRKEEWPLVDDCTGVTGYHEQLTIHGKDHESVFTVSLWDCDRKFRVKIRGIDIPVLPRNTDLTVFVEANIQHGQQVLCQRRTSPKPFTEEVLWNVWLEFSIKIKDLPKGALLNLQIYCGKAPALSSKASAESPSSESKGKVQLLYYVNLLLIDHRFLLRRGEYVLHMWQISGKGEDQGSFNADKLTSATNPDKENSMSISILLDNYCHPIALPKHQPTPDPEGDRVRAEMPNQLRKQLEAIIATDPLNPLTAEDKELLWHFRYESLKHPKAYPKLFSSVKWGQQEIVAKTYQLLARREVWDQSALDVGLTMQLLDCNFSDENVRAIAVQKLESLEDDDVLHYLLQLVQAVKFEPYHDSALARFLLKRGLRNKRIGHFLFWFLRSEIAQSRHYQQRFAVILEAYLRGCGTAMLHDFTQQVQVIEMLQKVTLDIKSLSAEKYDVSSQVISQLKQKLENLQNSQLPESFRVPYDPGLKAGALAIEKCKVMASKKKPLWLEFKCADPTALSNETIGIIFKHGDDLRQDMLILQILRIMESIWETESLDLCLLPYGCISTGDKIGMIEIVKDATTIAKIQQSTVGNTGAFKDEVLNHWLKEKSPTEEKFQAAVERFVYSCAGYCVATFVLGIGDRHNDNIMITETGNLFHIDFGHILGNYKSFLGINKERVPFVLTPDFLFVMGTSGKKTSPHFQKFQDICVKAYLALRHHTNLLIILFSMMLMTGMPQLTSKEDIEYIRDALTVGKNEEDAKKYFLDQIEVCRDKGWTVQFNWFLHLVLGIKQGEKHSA
Chain of PI3Kδ (p110δ/p85α) Recombinant Human Protein (O00329 whole entry): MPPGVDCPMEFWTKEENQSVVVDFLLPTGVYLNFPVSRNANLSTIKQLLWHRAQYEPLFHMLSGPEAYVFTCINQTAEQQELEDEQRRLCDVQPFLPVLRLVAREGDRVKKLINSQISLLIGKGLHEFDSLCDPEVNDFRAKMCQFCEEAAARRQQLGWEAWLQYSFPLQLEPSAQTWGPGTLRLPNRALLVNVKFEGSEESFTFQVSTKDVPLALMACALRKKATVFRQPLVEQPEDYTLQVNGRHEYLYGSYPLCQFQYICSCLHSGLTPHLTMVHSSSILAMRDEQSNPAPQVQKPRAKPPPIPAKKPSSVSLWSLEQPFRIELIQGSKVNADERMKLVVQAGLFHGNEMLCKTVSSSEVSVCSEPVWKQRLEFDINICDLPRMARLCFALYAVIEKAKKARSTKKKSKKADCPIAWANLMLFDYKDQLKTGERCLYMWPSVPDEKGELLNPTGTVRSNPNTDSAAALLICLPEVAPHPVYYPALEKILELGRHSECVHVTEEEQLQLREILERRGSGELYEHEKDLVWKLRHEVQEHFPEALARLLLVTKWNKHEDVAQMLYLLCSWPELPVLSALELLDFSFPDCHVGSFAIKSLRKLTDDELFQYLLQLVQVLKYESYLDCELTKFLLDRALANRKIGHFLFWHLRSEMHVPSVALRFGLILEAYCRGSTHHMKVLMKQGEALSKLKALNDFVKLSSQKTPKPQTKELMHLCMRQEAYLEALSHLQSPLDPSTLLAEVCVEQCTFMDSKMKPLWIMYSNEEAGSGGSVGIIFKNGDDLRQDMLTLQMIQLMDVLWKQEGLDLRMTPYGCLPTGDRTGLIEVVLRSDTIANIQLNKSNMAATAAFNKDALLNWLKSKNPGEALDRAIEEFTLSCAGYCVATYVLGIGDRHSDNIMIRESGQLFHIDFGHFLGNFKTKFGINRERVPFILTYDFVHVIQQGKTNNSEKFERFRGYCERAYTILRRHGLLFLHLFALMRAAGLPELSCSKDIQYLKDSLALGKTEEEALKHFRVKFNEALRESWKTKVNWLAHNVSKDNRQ
Chain of PI3Kδ (p110δ/p85α) Recombinant Human Protein (P27986 whole entry partner): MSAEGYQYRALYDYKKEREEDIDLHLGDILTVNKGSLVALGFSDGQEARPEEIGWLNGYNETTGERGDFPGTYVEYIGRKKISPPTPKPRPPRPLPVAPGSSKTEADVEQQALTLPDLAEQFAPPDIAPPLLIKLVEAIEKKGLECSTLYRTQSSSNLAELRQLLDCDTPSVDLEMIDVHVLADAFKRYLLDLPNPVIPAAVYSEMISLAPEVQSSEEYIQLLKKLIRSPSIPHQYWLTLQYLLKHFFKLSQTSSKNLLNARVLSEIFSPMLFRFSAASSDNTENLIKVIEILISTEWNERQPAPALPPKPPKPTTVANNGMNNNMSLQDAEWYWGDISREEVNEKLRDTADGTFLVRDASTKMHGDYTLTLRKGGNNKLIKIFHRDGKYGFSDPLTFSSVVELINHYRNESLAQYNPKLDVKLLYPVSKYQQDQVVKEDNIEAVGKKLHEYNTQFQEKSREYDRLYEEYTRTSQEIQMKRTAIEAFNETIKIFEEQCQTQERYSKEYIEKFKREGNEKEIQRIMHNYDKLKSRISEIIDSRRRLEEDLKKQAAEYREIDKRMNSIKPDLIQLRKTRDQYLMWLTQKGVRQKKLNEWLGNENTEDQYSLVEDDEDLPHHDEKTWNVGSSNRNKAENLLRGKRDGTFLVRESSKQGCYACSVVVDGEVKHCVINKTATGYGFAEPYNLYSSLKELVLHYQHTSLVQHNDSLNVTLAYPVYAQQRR

Turning to `Cc1ccc(S(=O)(=O)NC23CC(CO)(C2)C3)cc1-c1cnc(N)c(-n2cncn2)n1` [Example 24, 3-(5-Amino-6-(1H-1,2,4-triazol-1-yl)pyrazin-2-yl)-N-(3-(hydroxymethyl)bicyclo[1.1.1]pentan-1-yl)-4-methylbenzenesulfonamide trifluoroacetate salt], the IC50 (in general, the concentration that gives 50% inhibition) is no more than 500 nM in experiment [1], no more than 100 nM in experiment [2] and no more than 100 nM in experiment [3].

Turning to `Cc1ccc(S(=O)(=O)NC23CCC(C#N)(C2)C3)cc1-c1cnc(N)c(-c2cn(C)nc2C)c1` [Example 82, 3-(6-Amino-5-(1,3-dimethyl-1H-pyrazol-4-yl)pyridin-3-yl)-N-(4-cyanobicyclo[2.1.1]hexan-1-yl)-4-methylbenzenesulfonamide], the values for the IC50 in experiment [1], in experiment [2] and in experiment [3] were no more than 500 nM, no more than 1000 nM and no more than 100 nM, respectively.

Consider `Cc1ccc(S(=O)(=O)NC23CCC(C#N)(C2)C3)cc1-c1cnc(N)c(-n2cncn2)n1` [Example 28, 3-(5-Amino-6-(1H-1,2,4-triazol-1-yl)pyrazin-2-yl)-N-(4-cyanobicyclo[2.1.1]hexan-1-yl)-4-methylbenzenesulfonamide trifluoroacetate salt], for which the IC50 in experiment [1] was no more than 500 nM; in experiment [2], no more than 100 nM; in experiment [3], no more than 100 nM.

For the compound `[2H]C([2H])([2H])c1ccc(S(=O)(=O)NC23CCN(CC2)C3)cc1-c1cnc(N)c(-n2cncn2)n1` [Example 90, 3-(5-amino-6-(1H-1,2,4-triazol-1-yl)pyrazin-2-yl)-N-(1-azabicyclo[2.2.1]heptan-4-yl)-4-(methyl-d3)benzenesulfonamide], the IC50 in experiment [1], in experiment [2] and in experiment [3] was no more than 100 nM in each case.

Take `[2H]C([2H])([2H])c1ccc(S(=O)(=O)NC23CC(CO)(C2)C3)cc1-c1cnc(N)c(-c2cnco2)n1` [Example 75, 3-(5-Amino-6-(oxazol-5-yl)pyrazin-2-yl)-N-(3-(hydroxymethyl)bicyclo[1.1.1]pentan-1-yl)-4-(methyl-d3)benzenesulfonamide trifluoroacetate salt]: the IC50 is no more than 500 nM in experiment [1], no more than 100 nM in experiment [2] and no more than 100 nM in experiment [3].

As for `[2H]C([2H])([2H])c1ccc(S(=O)(=O)NC23CCC(C#N)(C2)C3)cc1-c1cnc(N)c(-c2cnco2)n1` [Example 69, 3-(5-Amino-6-(oxazol-5-yl)pyrazin-2-yl)-N-(4-cyanobicyclo[2.1.1]hexan-1-yl)-4-(methyl-d3)benzenesulfonamide trifluoroacetate salt], the IC50 in experiment [1], in experiment [2] and in experiment [3] was no more than 100 nM each time.

On to `Cc1ccc(S(=O)(=O)NC23COC(CO)(C2)C3)cc1-c1cnc(N)c(-n2cncn2)n1` [Example 27, 3-(5-Amino-6-(1H-1,2,4-triazol-1-yl)pyrazin-2-yl)-N-(1-(hydroxymethyl)-2-oxabicyclo[2.1.1]hexan-4-yl)-4-methylbenzenesulfonamide trifluoroacetate salt], for which the IC50 was no more than 500 nM in experiment [1], no more than 500 nM in experiment [2] and no more than 100 nM in experiment [3].

Consider `[2H]C([2H])([2H])c1ccc(S(=O)(=O)NC23CCC(C#N)(C2)C3)cc1-c1cnc(N)c(-c2cnc(N(C)C)nc2)n1` [Example 67, 3-(5-Amino-6-(2-(dimethylamino)pyrimidin-5-yl)pyrazin-2-yl)-N-(4-cyanobicyclo[2.1.1]hexan-1-yl)-4-(methyl-d3)benzenesulfonamide trifluoroacetate salt], for which the IC50 was no more than 500 nM in experiment [1], no more than 100 nM in experiment [2] and no more than 100 nM in experiment [3].

Turning to `Cc1ccc(S(=O)(=O)NC23CCC(C#N)(C2)C3)cc1-c1cnc(N)c(-n2ccnn2)n1` [Example 44, 3-(5-Amino-6-(1H-1,2,3-triazol-1-yl)pyrazin-2-yl)-N-(4-cyanobicyclo[2.1.1]hexan-1-yl)-4-methylbenzenesulfonamide Trifluoroacetate Salt], the IC50 in experiment [1], in experiment [2] and in experiment [3] was no more than 100 nM each time.

Take `Cc1ccc(S(=O)(=O)NC23CC(C(C)(C)O)(C2)C3)cc1-c1cnc(N)c(-n2cncn2)n1` [Example 29, 3-(5-Amino-6-(1H-1,2,4-triazol-1-yl)pyrazin-2-yl)-N-(3-(2-hydroxypropan-2-yl)bicyclo[1.1.1]pentan-1-yl)-4-methylbenzenesulfonamide trifluoroacetate salt]: the IC50 in experiment [1] was no more than 500 nM; in experiment [2] it was no more than 500 nM; in experiment [3], no more than 100 nM.

As for `[2H]C([2H])([2H])c1ccc(S(=O)(=O)NC23CC(C#N)(C2)C3)cc1-c1cnc(N)c(-n2nccn2)n1` [Example 50, 3-(5-Amino-6-(2H-1,2,3-triazol-2-yl)pyrazin-2-yl)-N-(3-cyanobicyclo[1.1.1]pentan-1-yl)-4-(methyl-d3)benzenesulfonamide Trifluoroacetate Salt], the IC50 in experiment [1] is no more than 100 nM; in experiment [2] it was no more than 500 nM; in experiment [3], no more than 100 nM.

Turning to `Cc1ccc(S(=O)(=O)NC23CC(C(=O)NCC(F)(F)F)(C2)C3)cc1-c1cnc(N)c(-n2cncn2)n1` [Example 35, 3-(3-(5-Amino-6-(1H-1,2,4-triazol-1-yl)pyrazin-2-yl)-4-methylphenylsulfonamido)-N-(2,2,2-trifluoroethyl)bicyclo[1.1.1]pentane-1-carboxamide trifluoroacetate salt], the results for the IC50 in experiment [1], in experiment [2] and in experiment [3] were no more than 500 nM, no more than 1000 nM and no more than 100 nM, respectively.

For `Cc1ncc(-c2nc(-c3cc(S(=O)(=O)NC45CCC(CO)(C4)C5)ccc3C)cnc2N)s1` [Example 5, 3-(5-Amino-6-(2-methylthiazol-5-yl)pyrazin-2-yl)-N-(4-(hydroxymethyl)bicyclo[2.1.1]hexan-1-yl)-4-methylbenzenesulfonamide trifluoroacetate salt], the IC50 in experiment [1], in experiment [2] and in experiment [3] was no more than 100 nM each time.
